Assay: Effect of temperature (and pH) on the stability of the solution (purity)
Type: physicochemical
Conditions: 7% solution in water

CCN(CC)CCOC(=O)CCc1nc(-c2ccccc2)c(-c2ccccc2)o1.Cl
Purity(%) at day 0 (pH 1.0, day 0): 98.2 ± 0.3% | Purity(%) at day 21 (5° C.) (pH 1.0, day 21, 5° C.): 90.1 ± 0.3% | Purity(%) at day 21 (25° C.) (pH 1.0, day 21, 25° C.): 59.9 ± 0.3% | Purity(%) at day 21 (40° C.) (pH 1.0, day 21, 40° C.): 7.9 ± 0.3% | Purity (%) at day 21 (60° C.) (pH 1.0, day 21, 60° C.): 0% | Purity(%) at day 0 (pH 2.0, day 0): 98.4 ± 0.3% | Purity(%) at day 21 (5° C.) (pH 2.0, day 21, 5° C.): 93.0 ± 0.2% | Purity(%) at day 21 (25° C.) (pH 2.0, day 21, 25° C.): 74.8 ± 0.2% | Purity(%) at day 21 (40° C.) (pH 2.0, day 21, 40° C.): 17.6 ± 0.2% | Purity (%) at day 21 (60° C.) (pH 2.0, day 21, 60° C.): 0% | Purity(%) at day 0 (pH 3.0, day 0): 98.6 ± 0.1% | Purity(%) at day 21 (5° C.) (pH 3.0, day 21, 5° C.): 96.9 ± 0.2% | Purity(%) at day 21 (25° C.) (pH 3.0, day 21, 25° C.): 88.9 ± 0.2% | Purity(%) at day 21 (40° C.) (pH 3.0, day 21, 40° C.): 36.4 ± 0.2% | Purity (%) at day 21 (60° C.) (pH 3.0, day 21, 60° C.): 0% | Purity(%) at day 0 (pH 3.7, day 0): 98.7 ± 0.2% | Purity(%) at day 21 (5° C.) (pH 3.7, day 21, 5° C.): 97.8 ± 0.1% | Purity(%) at day 21 (25° C.) (pH 3.7, day 21, 25° C.): 94.5 ± 0.2% | Purity(%) at day 21 (40° C.) (pH 3.7, day 21, 40° C.): 50.6 ± 0.2% | Purity (%) at day 21 (60° C.) (pH 3.7, day 21, 60° C.): 7.3 ± 0.3% | Purity(%) at day 0 (pH 4.0, day 0): 98.8 ± 0.1% | Purity(%) at day 21 (5° C.) (pH 4.0, day 21, 5° C.): 97.9 ± 0.1% | Purity(%) at day 21 (25° C.) (pH 4.0, day 21, 25° C.): 95.1 ± 0.1% | Purity(%) at day 21 (40° C.) (pH 4.0, day 21, 40° C.): 53.2 ± 0.2% | Purity (%) at day 21 (60° C.) (pH 4.0, day 21, 60° C.): 20.2 ± 0.2% | Purity(%) at day 0 (pH 4.3, day 0): 98.8 ± 0.2% | Purity(%) at day 21 (5° C.) (pH 4.3, day 21, 5° C.): 97.9 ± 0.2% | Purity(%) at day 21 (25° C.) (pH 4.3, day 21, 25° C.): 95.2 ± 0.2% | Purity(%) at day 21 (40° C.) (pH 4.3, day 21, 40° C.): 54.8 ± 0.1% | Purity (%) at day 21 (60° C.) (pH 4.3, day 21, 60° C.): 21.8 ± 0.3% | Purity(%) at day 0 (pH 4.6, day 0): 98.7 ± 0.1% | Purity(%) at day 21 (5° C.) (pH 4.6, day 21, 5° C.): 97.8 ± 0.2% | Purity(%) at day 21 (25° C.) (pH 4.6, day 21, 25° C.): 95.0 ± 0.1% | Purity(%) at day 21 (40° C.) (pH 4.6, day 21, 40° C.): 54.7 ± 0.2% | Purity (%) at day 21 (60° C.) (pH 4.6, day 21, 60° C.): 15.5 ± 0.3% | Purity(%) at day 0 (pH 5.0, day 0): 98.6 ± 0.3% | Purity(%) at day 21 (5° C.) (pH 5.0, day 21, 5° C.): 96.3 ± 0.2% | Purity(%) at day 21 (25° C.) (pH 5.0, day 21, 25° C.): 89.8 ± 0.1% | Purity(%) at day 21 (40° C.) (pH 5.0, day 21, 40° C.): 30.1 ± 0.2% | Purity (%) at day 21 (60° C.) (pH 5.0, day 21, 60° C.): 3.2 ± 0.2% | Purity(%) at day 0 (pH 6.0, day 0): 98.4 ± 0.2% | Purity(%) at day 21 (5° C.) (pH 6.0, day 21, 5° C.): 93.4 ± 0.2% | Purity(%) at day 21 (25° C.) (pH 6.0, day 21, 25° C.): 73.9 ± 0.2% | Purity(%) at day 21 (40° C.) (pH 6.0, day 21, 40° C.): 16.5 ± 0.2% | Purity (%) at day 21 (60° C.) (pH 6.0, day 21, 60° C.): 0% | Purity(%) at day 0 (pH 7.0, day 0): 98.2 ± 0.3% | Purity(%) at day 21 (5° C.) (pH 7.0, day 21, 5° C.): 89.2 ± 0.3% | Purity(%) at day 21 (25° C.) (pH 7.0, day 21, 25° C.): 59.7 ± 0.2% | Purity(%) at day 21 (40° C.) (pH 7.0, day 21, 40° C.): 7.1 ± 0.3% | Purity (%) at day 21 (60° C.) (pH 7.0, day 21, 60° C.): 0% | Purity(%) at day 0 (pH 8.0, day 0): 98.0 ± 0.3% | Purity(%) at day 21 (5° C.) (pH 8.0, day 21, 5° C.): 77.1 ± 0.3% | Purity(%) at day 21 (25° C.) (pH 8.0, day 21, 25° C.): 40.8 ± 0.3% | Purity(%) at day 21 (40° C.) (pH 8.0, day 21, 40° C.): 0% | Purity (%) at day 21 (60° C.) (pH 8.0, day 21, 60° C.): 0%

CCN(CC)CCOC(=O)c1cc(-c2ccc(F)cc2F)ccc1OC(C)=O.Cl
Purity(%) at day 0 (pH 1.0, day 0): 99.1% | Purity(%) at day 14 (5° C.) (pH 1.0, day 14, 5° C.): 90.2% | Purity(%) at day 14 (25° C.) (pH 1.0, day 14, 25° C.): 61.2% | Purity(%) at day 14 (40° C.) (pH 1.0, day 14, 40° C.): 0% | Purity (%) at day 14 (60° C.) (pH 1.0, day 14, 60° C.): 0% | Purity(%) at day 0 (pH 2.0, day 0): 99.1% | Purity(%) at day 14 (5° C.) (pH 2.0, day 14, 5° C.): 95.8% | Purity(%) at day 14 (25° C.) (pH 2.0, day 14, 25° C.): 82.7% | Purity(%) at day 14 (40° C.) (pH 2.0, day 14, 40° C.): 0% | Purity (%) at day 14 (60° C.) (pH 2.0, day 14, 60° C.): 0% | Purity(%) at day 0 (pH 3.0, day 0): 99.1% | Purity(%) at day 14 (5° C.) (pH 3.0, day 14, 5° C.): 97.5% | Purity(%) at day 14 (25° C.) (pH 3.0, day 14, 25° C.): 87.7% | Purity(%) at day 14 (40° C.) (pH 3.0, day 14, 40° C.): 2.3% | Purity (%) at day 14 (60° C.) (pH 3.0, day 14, 60° C.): 0% | Purity(%) at day 0 (pH 3.7, day 0): 99.1% | Purity(%) at day 14 (5° C.) (pH 3.7, day 14, 5° C.): 98.2% | Purity(%) at day 14 (25° C.) (pH 3.7, day 14, 25° C.): 95.5% | Purity(%) at day 14 (40° C.) (pH 3.7, day 14, 40° C.): 14.1% | Purity (%) at day 14 (60° C.) (pH 3.7, day 14, 60° C.): 0% | Purity(%) at day 0 (pH 4.0, day 0): 99.1% | Purity(%) at day 14 (5° C.) (pH 4.0, day 14, 5° C.): 98.4% | Purity(%) at day 14 (25° C.) (pH 4.0, day 14, 25° C.): 95.9% | Purity(%) at day 14 (40° C.) (pH 4.0, day 14, 40° C.): 14.3% | Purity (%) at day 14 (60° C.) (pH 4.0, day 14, 60° C.): 0% | Purity(%) at day 0 (pH 4.3, day 0): 99.1% | Purity(%) at day 14 (5° C.) (pH 4.3, day 14, 5° C.): 98.4% | Purity(%) at day 14 (25° C.) (pH 4.3, day 14, 25° C.): 95.8% | Purity(%) at day 14 (40° C.) (pH 4.3, day 14, 40° C.): 12.8% | Purity (%) at day 14 (60° C.) (pH 4.3, day 14, 60° C.): 0% | Purity(%) at day 0 (pH 4.6, day 0): 99.1% | Purity(%) at day 14 (5° C.) (pH 4.6, day 14, 5° C.): 98.3% | Purity(%) at day 14 (25° C.) (pH 4.6, day 14, 25° C.): 95.6% | Purity(%) at day 14 (40° C.) (pH 4.6, day 14, 40° C.): 3.4% | Purity (%) at day 14 (60° C.) (pH 4.6, day 14, 60° C.): 0% | Purity(%) at day 0 (pH 5.0, day 0): 99.1% | Purity(%) at day 14 (5° C.) (pH 5.0, day 14, 5° C.): 97.0% | Purity(%) at day 14 (25° C.) (pH 5.0, day 14, 25° C.): 91.0% | Purity(%) at day 14 (40° C.) (pH 5.0, day 14, 40° C.): 0.9% | Purity (%) at day 14 (60° C.) (pH 5.0, day 14, 60° C.): 0% | Purity(%) at day 0 (pH 6.0, day 0): 99.1% | Purity(%) at day 14 (5° C.) (pH 6.0, day 14, 5° C.): 91.6% | Purity(%) at day 14 (25° C.) (pH 6.0, day 14, 25° C.): 84.1% | Purity(%) at day 14 (40° C.) (pH 6.0, day 14, 40° C.): 0% | Purity (%) at day 14 (60° C.) (pH 6.0, day 14, 60° C.): 0% | Purity(%) at day 0 (pH 7.0, day 0): 99.1% | Purity(%) at day 14 (5° C.) (pH 7.0, day 14, 5° C.): 87.3% | Purity(%) at day 14 (25° C.) (pH 7.0, day 14, 25° C.): 60.3% | Purity(%) at day 14 (40° C.) (pH 7.0, day 14, 40° C.): 0% | Purity (%) at day 14 (60° C.) (pH 7.0, day 14, 60° C.): 0% | Purity(%) at day 0 (pH 8.0, day 0): 99.1% | Purity(%) at day 14 (5° C.) (pH 8.0, day 14, 5° C.): 57.3% | Purity(%) at day 14 (25° C.) (pH 8.0, day 14, 25° C.): 21.2% | Purity(%) at day 14 (40° C.) (pH 8.0, day 14, 40° C.): 0% | Purity (%) at day 14 (60° C.) (pH 8.0, day 14, 60° C.): 0%

Source: patent publication US20230157952A1, “METHOD FOR IMPROVING THE STABILITY OF A PHARMACEUTICAL COMPOSITION COMPRISING A HIGH PENETRATION DRUG, AND THE PHARMACEUTICAL COMPOSITION OBTAINED THEREFROM” (Techfields Inc., priority 2020, published 2023)
